# Patent US20260266848A1, “COMPOSITIONS AND METHODS FOR DIAGNOSING AND TREATING DYSTONIA” (Duke University, priority 2023, published 2026)
# Tested on: DYT-TOR1A MEF EVs
# Test: Quantitative LC-MS/MS proteomics of EVs from drug-treated DYT-TOR1A MEF cultures (ritonavir, salubrinal)
# Type: cell-based, mouse
# Set-up: key to RTV Corrective Direction / RTV Corrective Direction, Grwd1 / RTV Corrective Direction, Srrm2 / RTV Corrective Direction, Rbm17 / RTV Corrective Direction, Dcaf8 / RTV Corrective Direction, Edil3 / RTV Corrective Direction, Timp3 / RTV Corrective Direction, Heatr3 / RTV Corrective Direction, Brd4 / RTV Corrective Direction, P3h4 / RTV Corrective Direction, Pacsin3 / RTV Corrective Direction, Naa50 / RTV Corrective Direction, Lpar6 / RTV Corrective Direction, Ndrg1 / RTV Corrective Direction, Kntc1 / RTV Corrective Direction, Cdk11b / RTV Corrective Direction, Sumo1 / RTV Corrective Direction, Lsm4 / RTV Corrective Direction, Hmga2 / RTV Corrective Direction, Cstf1 / RTV Corrective Direction, Tes / RTV Corrective Direction, Sbno1 / RTV Corrective Direction, Unc119b / RTV Corrective Direction, Cfdp1 / RTV Corrective Direction, Sec61b: YES = protein abundance effect opposite to DYT/WT
structure (smiles),measurement,setting,value
CC(C)c1nc(CN(C)C(=O)N[C@H](C(=O)N[C@@H](Cc2ccccc2)C[C@H](O)[C@H](Cc2ccccc2)NC(=O)OCc2cncs2)C(C)C)cs1 [ritonavir],"Absolute Cohen's d Sum (Geno + RTV), Brd4",EV protein Brd4 (Q9ESU6),6.97
same,"DYT + RTV/DYT Cohen's d, Brd4",EV protein Brd4 (Q9ESU6),3.33
same,"RTV Corrective Direction, Brd4","EV protein Brd4 (Q9ESU6), DYT + RTV vs DYT",YES
same,"Absolute Cohen's d Sum (Geno + RTV), Cdk11b",EV protein Cdk11b (P24788),6.07
same,"DYT + RTV/DYT Cohen's d, Cdk11b",EV protein Cdk11b (P24788),2.84
same,"RTV Corrective Direction, Cdk11b","EV protein Cdk11b (P24788), DYT + RTV vs DYT",YES
same,"Absolute Cohen's d Sum (Geno + RTV), Cfdp1",EV protein Cfdp1 (O88271),4.50
same,"DYT + RTV/DYT Cohen's d, Cfdp1",EV protein Cfdp1 (O88271),1.87
same,"RTV Corrective Direction, Cfdp1","EV protein Cfdp1 (O88271), DYT + RTV vs DYT",YES
same,"Absolute Cohen's d Sum (Geno + RTV), Cstf1",EV protein Cstf1 (Q99LC2),4.79
same,"DYT + RTV/DYT Cohen's d, Cstf1",EV protein Cstf1 (Q99LC2),1.81
same,"RTV Corrective Direction, Cstf1","EV protein Cstf1 (Q99LC2), DYT + RTV vs DYT",YES
same,"Absolute Cohen's d Sum (Geno + RTV), Ctdsp1",EV protein Ctdsp1 (P58466),9.37
same,"DYT + RTV/DYT Cohen's d, Ctdsp1",EV protein Ctdsp1 (P58466),−0.28
same,"DYT + RTV/DYT Cohen's d, Dcaf8",EV protein Dcaf8,3.49
same,"Absolute Cohen's d Sum (Geno + RTV), Dcaf8",EV protein Dcaf8 (Q8N7N5),7.70
same,"RTV Corrective Direction, Dcaf8","EV protein Dcaf8 (Q8N7N5), DYT + RTV vs DYT",YES
same,"Absolute Cohen's d Sum (Geno + RTV), Dnajc7",EV protein Dnajc7 (Q9QYI3),4.50
same,"DYT + RTV/DYT Cohen's d, Dnajc7",EV protein Dnajc7 (Q9QYI3),−0.67
same,"Absolute Cohen's d Sum (Geno + RTV), Drg1",EV protein Drg1 (P32233),4.38
same,"DYT + RTV/DYT Cohen's d, Drg1",EV protein Drg1 (P32233),−1.06
same,"Absolute Cohen's d Sum (Geno + RTV), Edil3",EV protein Edil3 (O35474),7.67
same,"DYT + RTV/DYT Cohen's d, Edil3",EV protein Edil3 (O35474),4.51
same,"RTV Corrective Direction, Edil3","EV protein Edil3 (O35474), DYT + RTV vs DYT",YES
same,"Absolute Cohen's d Sum (Geno + RTV), Grwd1",EV protein Grwd1 (Q810D6),8.06
same,"DYT + RTV/DYT Cohen's d, Grwd1",EV protein Grwd1 (Q810D6),2.65
same,"RTV Corrective Direction, Grwd1","EV protein Grwd1 (Q810D6), DYT + RTV vs DYT",YES
same,"Absolute Cohen's d Sum (Geno + RTV), Heatr3",EV protein Heatr3 (Q8BQM4),7.08
same,"DYT + RTV/DYT Cohen's d, Heatr3",EV protein Heatr3 (Q8BQM4),3.09
same,"RTV Corrective Direction, Heatr3","EV protein Heatr3 (Q8BQM4), DYT + RTV vs DYT",YES
same,"Absolute Cohen's d Sum (Geno + RTV), Hmga2",EV protein Hmga2 (P52927),5.34
same,"DYT + RTV/DYT Cohen's d, Hmga2",EV protein Hmga2 (P52927),1.97
same,"RTV Corrective Direction, Hmga2","EV protein Hmga2 (P52927), DYT + RTV vs DYT",YES
same,"Absolute Cohen's d Sum (Geno + RTV), Kntc1",EV protein Kntc1 (Q8C3Y4),6.09
same,"DYT + RTV/DYT Cohen's d, Kntc1",EV protein Kntc1 (Q8C3Y4),2.48
same,"RTV Corrective Direction, Kntc1","EV protein Kntc1 (Q8C3Y4), DYT + RTV vs DYT",YES
same,"Absolute Cohen's d Sum (Geno + RTV), Lpar6",EV protein Lpar6 (Q8BMC0),6.22
same,"DYT + RTV/DYT Cohen's d, Lpar6",EV protein Lpar6 (Q8BMC0),−3.03
same,"RTV Corrective Direction, Lpar6","EV protein Lpar6 (Q8BMC0), DYT + RTV vs DYT",YES
same,"Absolute Cohen's d Sum (Geno + RTV), Lsm4",EV protein Lsm4 (Q9QXA5),5.40
same,"DYT + RTV/DYT Cohen's d, Lsm4",EV protein Lsm4 (Q9QXA5),2.49
same,"RTV Corrective Direction, Lsm4","EV protein Lsm4 (Q9QXA5), DYT + RTV vs DYT",YES
same,"Absolute Cohen's d Sum (Geno + RTV), Maea",EV protein Maea (Q4VC33),3.96
same,"DYT + RTV/DYT Cohen's d, Maea",EV protein Maea (Q4VC33),−0.37
same,"Absolute Cohen's d Sum (Geno + RTV), Myo1e",EV protein Myo1e (E9Q634),5.88
same,"DYT + RTV/DYT Cohen's d, Myo1e",EV protein Myo1e (E9Q634),−1.46
same,"Absolute Cohen's d Sum (Geno + RTV), Naa50",EV protein Naa50 (Q6PGB6),6.3
same,"DYT + RTV/DYT Cohen's d, Naa50",EV protein Naa50 (Q6PGB6),1.96
same,"RTV Corrective Direction, Naa50","EV protein Naa50 (Q6PGB6), DYT + RTV vs DYT",YES
same,"Absolute Cohen's d Sum (Geno + RTV), Ndrg1",EV protein Ndrg1 (Q62433),6.19
same,"DYT + RTV/DYT Cohen's d, Ndrg1",EV protein Ndrg1 (Q62433),2.70
same,"RTV Corrective Direction, Ndrg1","EV protein Ndrg1 (Q62433), DYT + RTV vs DYT",YES
same,"Absolute Cohen's d Sum (Geno + RTV), P3h4",EV protein P3h4 (Q8K2B0),6.88
same,"DYT + RTV/DYT Cohen's d, P3h4",EV protein P3h4 (Q8K2B0),1.62
same,"RTV Corrective Direction, P3h4","EV protein P3h4 (Q8K2B0), DYT + RTV vs DYT",YES
same,"Absolute Cohen's d Sum (Geno + RTV), Pacsin3",EV protein Pacsin3 (Q99JB8),6.45
same,"DYT + RTV/DYT Cohen's d, Pacsin3",EV protein Pacsin3 (Q99JB8),−3.41
same,"RTV Corrective Direction, Pacsin3","EV protein Pacsin3 (Q99JB8), DYT + RTV vs DYT",YES
same,"Absolute Cohen's d Sum (Geno + RTV), Pcdh19",EV protein Pcdh19 (Q80TF3),7.74
same,"DYT + RTV/DYT Cohen's d, Pcdh19",EV protein Pcdh19 (Q80TF3),−0.30
same,"Absolute Cohen's d Sum (Geno + RTV), Plpp3",EV protein Plpp3 (Q99JY8),4.97
same,"DYT + RTV/DYT Cohen's d, Plpp3",EV protein Plpp3 (Q99JY8),0.51
same,"Absolute Cohen's d Sum (Geno + RTV), Rbm17",EV protein Rbm17 (Q8JZX4),7.77
same,"DYT + RTV/DYT Cohen's d, Rbm17",EV protein Rbm17 (Q8JZX4),2.38
same,"RTV Corrective Direction, Rbm17","EV protein Rbm17 (Q8JZX4), DYT + RTV vs DYT",YES
same,"Absolute Cohen's d Sum (Geno + RTV), Sbno1",EV protein Sbno1 (Q689Z5),4.67
same,"DYT + RTV/DYT Cohen's d, Sbno1",EV protein Sbno1 (Q689Z5),1.29
same,"RTV Corrective Direction, Sbno1","EV protein Sbno1 (Q689Z5), DYT + RTV vs DYT",YES
same,"Absolute Cohen's d Sum (Geno + RTV), Sec61b",EV protein Sec61b (Q9CQS8),3.57
same,"DYT + RTV/DYT Cohen's d, Sec61b",EV protein Sec61b (Q9CQS8),0.27
same,"RTV Corrective Direction, Sec61b","EV protein Sec61b (Q9CQS8), DYT + RTV vs DYT",YES
same,"Absolute Cohen's d Sum (Geno + RTV), Sh3bp4",EV protein Sh3bp4 (Q921I6),4.75
same,"DYT + RTV/DYT Cohen's d, Sh3bp4",EV protein Sh3bp4 (Q921I6),−0.91
same,"Absolute Cohen's d Sum (Geno + RTV), Srrm2",EV protein Srrm2 (Q8BTI8),7.87
same,"DYT + RTV/DYT Cohen's d, Srrm2",EV protein Srrm2 (Q8BTI8),3.51
same,"RTV Corrective Direction, Srrm2","EV protein Srrm2 (Q8BTI8), DYT + RTV vs DYT",YES
same,"Absolute Cohen's d Sum (Geno + RTV), Sumo1",EV protein Sumo1 (P63166),5.99
same,"DYT + RTV/DYT Cohen's d, Sumo1",EV protein Sumo1 (P63166),2.28
same,"RTV Corrective Direction, Sumo1","EV protein Sumo1 (P63166), DYT + RTV vs DYT",YES
same,"Absolute Cohen's d Sum (Geno + RTV), Tes",EV protein Tes (P47226),4.69
same,"DYT + RTV/DYT Cohen's d, Tes",EV protein Tes (P47226),0.20
same,"RTV Corrective Direction, Tes","EV protein Tes (P47226), DYT + RTV vs DYT",YES
same,"Absolute Cohen's d Sum (Geno + RTV), Timp3",EV protein Timp3 (P39876),7.42
same,"DYT + RTV/DYT Cohen's d, Timp3",EV protein Timp3 (P39876),−2.93
same,"RTV Corrective Direction, Timp3","EV protein Timp3 (P39876), DYT + RTV vs DYT",YES
same,"Absolute Cohen's d Sum (Geno + RTV), Tspan7",EV protein Tspan7 (Q62283),7.37
same,"DYT + RTV/DYT Cohen's d, Tspan7",EV protein Tspan7 (Q62283),−2.89
same,"Absolute Cohen's d Sum (Geno + RTV), Unc119b",EV protein Unc119b (Q8C4B4),4.63
same,"DYT + RTV/DYT Cohen's d, Unc119b",EV protein Unc119b (Q8C4B4),2.22
same,"RTV Corrective Direction, Unc119b","EV protein Unc119b (Q8C4B4), DYT + RTV vs DYT",YES
same,Pearson's r between genotype and ritonavir effects on EV protein abundance,"entire proteome, n=1974",−0.74
same,Pearson's r between genotype and ritonavir effects on EV protein abundance,"putative DYT biomarker subset, n=363",−0.78
same,"additional human plasma EV protein homologs modulated in a corrective direction in mouse DYT1 EV experiment (MEF), not reaching significance (p<0.05)",ritonavir,687
same,all EV proteins with log 2 fold change>0,"ritonavir 20 μM, 24 h",1372/1974
same,number of significant hits among 363 proteins relative to chance (α=0.05),"ritonavir 20 μM, 24 h",12 times
same,overall effect on the DYT-TOR1A MEF EV proteome,"ritonavir 20 μM, 24 h",broad corrective effect
same,significantly modified EV proteins with log 2 fold change>0,"ritonavir 20 μM, 24 h",508/582
same,overall effect on the DYT-TOR1A MEF EV proteome,"ritonavir 20 μM, 24 h, listed as Ritonavir",proteome-wide corrective effects
same,hierarchical clustering of EV samples on 363 genotype biomarker proteins,ritonavir-treated DYT-TOR1A EV samples,clustered more closely with WT than DYT-TOR1A samples
